Laboratory results reported in patent US20250018030A1, “PHARMACEUTICAL COMPOSITION FOR PROMOTING CANCER IMMUNOTHERAPY AND METHOD FOR PROMOTING CANCER IMMUNOTHERAPY” (China Medical University, priority 2023, published 2025).

Experiments:
[1] = test system: Th2 cells and regulatory T cells (Treg); assay: Populations of Th2 cells and Treg cells after genipin; type: cell-based, Mouse; conditions: genipin-treated; data not shown
Procedure: Mouse lymph nodes and spleens were harvested, and naïve CD4 or CD8 T cells isolated via magnetic bead separation (STEMCELL Technologies) and activated in α-CD3 (10 μg/ml) and α-CD28 (1 μg/ml) pre-coated 96-well plates. Skewing conditions were as follows: Th1 cells/Tc1 cells ([…] 10 μ/ml α-IL-4), Th2 cells/Tc2 cells (20 ng/ml IL-4 and 10 μ/ml α-IFN-γ), Th17 cells/Tc17 cells (20 ng/ml IL-6, 1.25 ng/ml […], 20 ng/ml IL-1β, 20 ng/ml IL-23, 10 μg/ml α-IFN-γ and 10 μg/ml α-IL-4), and Treg cells (5 ng/ml TGF-β, 10 μg/ml α-IFN-γ and 10 μg/ml α-IL-4) in the indicated medium. Cells were cultured for 4-5 days followed by treatment with genipin (3.125 μM, 6.25 μM, 12.5 μM) or DMSO for 12-16 hours.
(§1) Monoclonal antibodies were purchased from BD Biosciences or eBioscience. For intracellular cytokine staining (ICS), cells were first restimulated by PMA/ionomycin for 5 hours in the presence of GolgiStop (BD Biosciences), followed by surface epitope staining markers before being fixed/permeabilized (BD Cytofix/Cytoperm™) and stained with antibodies targeting intracellular antigens. Cells were finally fixed with 1.5% formaldehyde for 10 minutes at room temperature and analyzed on a FACSVerse flow cytometer (BD Bioscience). Data were analyzed using FlowJo software (Tree Star Inc.).

Pan18 cells = assay: Tumorigenicity assay, Pan18 subcutaneous implantation (PDAC-bearing mice); type: in vivo
Procedure: as §1
(§2) For Pan18-subcutaneous implantation, 5×10^5 Pan18 cells were administered to wild-type (WT) or IL-17^−/− mice. Genipin (5 mg/kg, 10 mg/kg, or 30 mg/kg, i.p., every two days) was administered to Pan18-bearing mice for 3 weeks. For 3036-subcutanous implantation, 2×10^5 3036 cells were administered to WT mice. Genipin (10 mg/kg, i.p., every two days) and recombinant anti-IL-17 receptor antibody (αIL-17RA) (1 mg/kg, i.v., once a week) were administered to 3036-bearing mice for 3 weeks. Tumor volumes were evaluated every 2 days. For the orthotopic tumor modelling, mice pancreases were injected with 2×10^5 Pan18 cells and monitored for tumor growth weekly using IVIS kinetics imaging system (Caliper Life-Sciences). Genipin (10 mg/kg, i.p., every two days) or αIL-17RA (1 mg/kg, i.v., once a week) was administered 1 week after tumor implantation. Mice were sacrificed 35 days after tumor induction and tumors weighed. For spontaneous pancreatic cancer model, Cre-dependent conditional knockin mutations of KrasG12D Kras^+/LSLG12D mice (B6; 129-Kras2) were obtained from the Mouse Models of Human Cancer Consortium. Elas-CreERT; Kras^+/LSLG12D mice was generated by breeding Kras^+/LSLG12D mice with Elas-CreER mice obtained from the Level Transgenic Center. To induce the expression of Kras^+/LSLG12D in acinar cells, 5-week-old Elas-CreERT; Kras^+/LSLG12D male mice were injected with 100 μl of tamoxifen (20 mg/ml, i.p., three times per week) for 1 week. To induce chronic inflammation and tumors, 100 μl of cerulein (50 μg/ml, i.p., six times per week) (BACHEM) was given to the mice for 3 weeks. Then, the mice were injected with genipin (10 mg/kg, i.p., every two days) and αIL-17RA (1 mg/kg, i.v., once a week) until the end of the experiment, and overall survival was monitored. For genetically CD4/CD8-specific UCP2 deletion tumor modelling, we generated CD4Cre×UCP2^f/f mice by crossing loxP-UCP2-loxP mice with CD4Cre mice. CD4Cre×UCP2^f/f, WT, and loxP control mice underwent subcutaneous implantation of 2×10^5 Pan18 cells, followed by treatment with αIL-17RA (1 mg/kg, i.v., once a week) for 3 weeks. For melanoma modelling, IL-17/-and WT mice underwent subcutaneous implantation of 5×10^5 B16F10 cells, followed by treatment with genipin (10 mg/kg, i.p., every two days) for 3 weeks. For CD8 depletion tumor modelling, IL-17^−/− mice underwent subcutaneous implantation of 2×10^5 Pan18 cells, followed by treatment with genipin (10 mg/kg, i.p., every two days) and CD8 neutralizing antibody (5 mg/kg, i.v., once a week) for 3 weeks. Tumor volumes were evaluated every 3 days.
Serum levels of IFN-γ, IL-17, TNF-α, IL-12, IL-6, and TGF-β were measured using commercial enzyme-linked immunosorbent assay (ELISA) kits (BD Biosciences; R&D systems; BioLegend) according to the manufacturer's protocol.
Total protein concentration of the tumor lysates was quantified by a Bradford assay. Tumoral chemokine profiles were determined by analyzing 250 μg protein from the tumor lysates using a Proteome Profiler™ Mouse Chemokine Array Kit (ARY020, R&D Systems) according to the manufacturer's instructions. […]

B16F10 cells = assay: Melanoma model, B16F10 subcutaneous implantation; type: in vivo; conditions: IL-17−/− mice
Procedure: as §1, §2

[2] = IL-17−/− mice, genipin 5 or 10 mg/kg, dose-dependent, FIG. 5C
[3] = IL-17−/− mice, genipin, data not shown
[4] = WT mice, escalating doses of genipin, FIG. 3S

COC(=O)C1=CO[C@@H](O)[C@@H]2C(CO)=CC[C@H]12 [genipin]
Population of Th2 cells [1]: nor significantly altering the populations
Population of regulatory T cells (Treg) [1]: nor significantly altering the populations
Tumor growth (tumor volume, tumor weight) (Pan18 cells; IL-17−/− mice, genipin 5 or 10 mg/kg i.p. every two days, 3 weeks, FIG. 5A-5B): synergistic effect to inhibit tumor growth
Serum IFN-γ (Pan18 cells; [2]): increased
Serum IL-12 (Pan18 cells; [2]): increased
Serum TNF-α (Pan18 cells; [2]): increased
Numbers of Tc1 cells (Pan18 cells; IL-17−/− mice, genipin, FIG. 5D): increased numbers of Tc1 cells
Numbers of MDSC (Pan18 cells; IL-17−/− mice, genipin, FIG. 5G): decreased numbers of MDSC
IL-17-ablation driven change in CCL2 level (Pan18 cells; [3]): had no effects
IL-17-ablation driven change in CXCL10 level (Pan18 cells; [3]): had no effects
Absolute numbers of Tc1 cells (Pan18 cells; WT mice, escalating doses of genipin i.p. every two days, 3 weeks, FIG. 3A-3C): increases in the absolute numbers
Serum IFN-γ (Pan18 cells; [4]): increased
Serum IL-6 (Pan18 cells; [4]): increased
Serum IL-12 (Pan18 cells; [4]): increased
Serum TNF-α (Pan18 cells; [4]): increased
Serum IL-17 (Pan18 cells; WT mice, escalating doses of genipin, end of experiment, FIG. 3S): increased
Tumorigenesis (tumor volume, tumor weight) (Pan18 cells; WT mice, genipin alone, FIG. 3T-3U): did not suppress tumorigenesis
Absolute numbers of Th1 cells (Pan18 cells; WT mice, genipin i.p. every two days, 3 weeks, FIG. 3D-3F): increases in the absolute numbers
Numbers of Tc17 cells (Pan18 cells; WT mice, genipin i.p. every two days, 3 weeks, FIG. 3G-3I): increased
Numbers of Th17 cells (Pan18 cells; WT mice, genipin i.p. every two days, 3 weeks, FIG. 3J-3L): increased
Numbers of Treg cells in the lymph nodes and spleens (Pan18 cells; WT mice, genipin i.p., FIG. 3M-3O): decreased
Numbers of MDSC in the lymph nodes and spleens (Pan18 cells; WT mice, genipin i.p., FIG. 3P-3R): decreased
Tumor infiltrating MDSC (Pan18 cells; WT mice, genipin i.p., tumor): no changes
Tumor infiltrating Tc1 cells (Pan18 cells; WT mice, genipin i.p., tumor): no changes
Tumor infiltrating Th1 cells (Pan18 cells; WT mice, genipin i.p., tumor): no changes
Tumor growth (tumor volume) (B16F10 cells; genipin 10 mg/kg i.p. every two days, 3 weeks, FIG. 7B): additional effect on the inhibition of tumor growth
Population of Tc1 cells (B16F10 cells; genipin 10 mg/kg, FIG. 7C): increased the expansion of Tc1 cells
Population of Th1 cells (B16F10 cells; genipin 10 mg/kg, FIG. 7D): not significantly impacting
Population of Treg cells (B16F10 cells; genipin 10 mg/kg, FIG. 7E): not significantly impacting
Prevalence of MDSC (B16F10 cells; genipin 10 mg/kg, FIG. 7F): decreasing prevalence of MDSC
